Data on 25 molecules can be found in patent publication US5496834A, “Lactol derivatives, their production and use” (Takeda Chemical Industries, Ltd., priority 1993, dated 1996).

Molecules are shown by their SMILES. Numbered stars: 1 amine (or outer) side, 2 acyl side, 3 side chain; on linkers, the order of the positions; unused ones are H or OH. Peptide text beside a SMILES is read from it. CO = O=C([*:1])[*:2]

T1 sequence (P07711 114-333): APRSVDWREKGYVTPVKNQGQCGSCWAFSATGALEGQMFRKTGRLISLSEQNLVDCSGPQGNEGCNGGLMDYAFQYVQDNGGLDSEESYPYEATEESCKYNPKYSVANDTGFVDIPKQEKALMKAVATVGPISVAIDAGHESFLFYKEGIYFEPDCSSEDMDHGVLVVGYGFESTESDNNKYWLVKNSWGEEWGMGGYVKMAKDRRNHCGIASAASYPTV

One data set concerns the target T1, human cathepsin L (Homo sapiens, UniProt P07711).
T1 construct: made in house
As to the kind of experiment: human cathepsin L inhibitory action. It counts as biochemical. The settings on record: recombinant human cathepsin L, substrate Z-Phe-Arg-NMec, pH 5.5, 30° C., 10 minutes. As to the method:
The recombinant human cathepsin L obtained by the procedure described in Example 8 of the specification of EPC 931098792 (European Publication No. 0576953 A2) (which is incorporated herein by reference) was diluted to 1 μg/ml with a diluent (0.1% Brij35, Sigma). This diluted enzyme solution was admixed with 46 μl of said diluent, 2 μl of 0.1M DTT and 25 μl of an activator/buffer (340 mM sodium acetate, 60 mM acetic acid, 4 mM EDTA disodium, pH 5.5). Then, 1 μl of a solution of the test compound in dimethyl sulfoxide (DMSO) (10 ^-2 M) and 25 μl of 20 μM Z-phe-Arg-NMec (substrate solution) were added. The mixture was incubated at 30° C. for 10 minutes, after which 100 μl of a reaction stopper (100 mM sodium monochloroacetate, 30 mM sodium acetate, pH 4.3) was added. This reaction was carried out on a 96-well Fluoroplate (Labosystems).
After termination of the reaction, the intensity of fluorescence of liberated aminomethylcoumarin at 450 nm was measured at an excitation wavelength of 365 nm. As a blank experiment, 1 μl of DMSO not containing the test compound was added and the intensity of fluorescence after the reaction was taken as 100% activity. For a sample showing a residual activity of 10% or less, a further diluted solution was used to determine the residual activity by the same procedure as above. Then, IC50 values were calculated.
As for `CC(C)(C)OC(=O)N[C@@H](Cc1ccccc1)C(=O)N[C@H]1CCOC1O` (stereo partly drawn) [Example 1, (3S)-3-[[N-tert-butoxycarbonyl-(L)-phenylalanyl]amino]-2-hydroxytetrahydrofuran], the IC50 was 30 nM.
Still for that read-out and setting: in the case of `CC[C@H](C)[C@H](NS(=O)(=O)c1cccc2ccccc12)C(=O)N[C@H]1CCOC1O` (stereo partly drawn) [Example 4] it was 57 nM; in that of `O=C(N[C@@H](Cc1ccccc1)C(=O)N[C@H]1CCOC1O)OCc1ccccc1` (stereo partly drawn) [Example 5], 8 nM.
The same measure, in the same setting: as for `CC(C)[C@H](NC(=O)OCc1ccccc1)C(=O)N[C@H]1CCOC1O` (stereo partly drawn) [Example 6], the figure is 30 nM.
Same read-out and setting: in the case of `CCCC(CCC)C(=O)N[C@H](C(=O)N[C@H]1CCOC1O)C(C)C` (stereo partly drawn) [Example 12] it was 32 nM.
Regarding `O=C(COc1ccccc1)N[C@@H](Cc1ccccc1)C(=O)N[C@H]1CCOC1O` (stereo partly drawn) [Example 14], the IC50 came to 9.4 nM.
Same read-out and setting: as for `CC(C)C[C@H](NC(=O)Nc1cccc2ccccc12)C(=O)N[C@H]1CCOC1O` (stereo partly drawn) [Example 17], the figure is 6.9 nM.
On the same count and under the same terms, in the case of `O=C(N[C@@H](Cc1ccccc1)C(=O)N[C@H]1CCCOC1O)OCc1ccccc1` (stereo partly drawn) [Example 23] it was 28 nM; in that of `CC(=O)OC1OCC[C@@H]1NC(=O)[C@@H](NC(=O)OCc1ccccc1)C(C)C` (stereo partly drawn) [Example 25, (3S)-2-acetoxy-3-[[N-benzyloxycarbonyl-(L)-valyl]amino]tetrahydrofuran], 450 nM; in that of `CC(C)C[C@H](NC(=O)OCc1ccccc1)C(=O)N[C@@H](CC(C)C)C(=O)N[C@H]1CCCOC1O` (stereo partly drawn) [Example 38], 52 nM.
Still for that read-out and setting: as for `CCOP(=O)(Cc1ccc(C(=O)N[C@@H](CC(C)C)C(=O)N[C@H]2CCOC2O)cc1)OCC` (stereo partly drawn) [Example 42], the figure is 29 nM; as for `CC(=O)O[C@@H]1OCC[C@@H]1NC(=O)[C@H](CC(C)C)NC(=O)c1cccnc1` [Example 62], 870 nM; as for `CC(=O)O[C@@H]1OCC[C@@H]1NC(=O)[C@H](CC(C)C)NC(=O)c1ccccn1` [Example 64], 690 nM.
On to `COC1OCC[C@@H]1NC(=O)[C@H](CC(C)C)NC(=O)Nc1cccc2ccccc12` (stereo partly drawn) [Example 89, (3S)-2-methoxy-3-[[N-(1-naphthylcarbamoyl)-(L)-leucyl]amino]-tetrahydrofuran], for which the IC50 is 190 nM.

The test system of a further data set is mice. As to the kind of experiment: oral toxicity in mice. The following applies: 500 mg/kg. It counts as in vivo. The source says:
Moreover, its toxic potential is low. […] Therefore, the compound (Ia) or (Ib) of this invention can be used in the prophylaxis and therapy of osteoporosis in mammalian animals (e.g. mouse, rat, rabbit, dog, cat, cattle, swine and man).
Take `CCCC(CCC)C(=O)N[C@H](C(=O)N[C@H]1CCO[C@H]1OC(C)=O)C(C)C` [Example 60]: the “deaths after oral administration” value is recorded as “killed no test animals”.

The test system of a further data set is bone (antebrachial bones: radii, cubiti). Put plainly: bone resorption inhibitory action (45Ca release from cultured fetal rat bones). The data set is classed as cell-based, Sprague-Dawley rat. The settings on record: 48 h, concentration 10 μM, 2 days culture, mean of 5 bone pieces, lower = stronger inhibition, p<0.05, p<0.01, ***, p<0.001 vs. control, read-out: Bone resorption Inhibitory Activity [45Ca release (Percent to control)]. As to the method: Bone resorption inhibitory activity was assayed by the method of Raisz [J. Clin. Invest. 44, 103-116 (1965) which is incorporated herein by reference]. Thus, a Sprague-Dawley rat on day 18 of gestation was subcutaneously dosed with 50 μCi of ^45 Ca (an isotope of calcium, dissolved in CaCl2). The following day, the abdomen was opened and the fetuses were aseptically extracted. Under the dissecting microscope, the bilateral antebrachial bones (radii, cubiti) were separated from the carcass and the connective tissues and cartilages were removed as far as possible to prepare bone culture specimens. Each of these bone specimens was put in 0.6 ml of BGJb medium (Fitton-Jackson modification; GIBCO Laboratories, USA) supplemented with bovine serum albumin (final concentration 2 mg/ml) and incubated at 37° C. for 24 hours. This bone was further cultured in the same medium containing the test compound (final concentration 10 μM or 30 μM) for 2 days. The percent ratio (%) of ^45 Ca released from the bone to the medium was calculated from the radioactivity count in the medium and that in the bone by means of the following equation. [formula]
As a control group, the bones from a fetus of the same litter were similarly cultured for 2 days. The mean ± standard deviation was calculated for 5 bone pieces per group and the percentage (%) of this value relative to the value of the control group was calculated.
On to `CCCC(CCC)C(=O)N[C@H](C(=O)N[C@H]1CCOC1O)C(C)C` (stereo partly drawn) [Example 12], for which the activity at 10 µM amounted to 64%.
Still for that read-out and setting: as for `CC(C)C[C@H](NC(=O)OCc1ccccc1)C(=O)N[C@H]1CCOC1O` (stereo partly drawn) [Example 15], the figure is 26%.
On the same count and under the same terms, as for `CC(C)C[C@H](NC(=O)OCc1ccccc1)C(=O)N[C@@H](CC(C)C)C(=O)N[C@H]1CCOC1O` (stereo partly drawn) [Example 16], the figure is 77%; as for `CC(C)C[C@H](NC(=S)Nc1cccc2ccccc12)C(=O)N[C@H]1CCOC1O` (stereo partly drawn) [Example 21], 67%.
On the same count and under the same terms, as for `CC(=O)OC1OCC[C@@H]1NC(=O)[C@@H](NC(=O)OCc1ccccc1)C(C)C` (stereo partly drawn) [Example 25, (3S)-2-acetoxy-3-[[N-benzyloxycarbonyl-(L)-valyl]amino]tetrahydrofuran], the figure is 75%; as for `CC(C)C[C@H](NS(=O)(=O)c1cccc2ccccc12)C(=O)N[C@H]1CCCOC1O` (stereo partly drawn) [Example 35, (3S)-2-hydroxy-3-[[N-(1-naphthalenesulfonyl)-(L)-leucyl]amino]tetrahydropyran], 82%.
Consider `CCCC(CCC)C(=O)N[C@H](C(=O)N[C@H]1CCO[C@@H]1OC)C(C)C` [Example 73, (2S,3S)-2-methoxy-3-[[N-valproyl-(L)-valyl]amino]tetrahydrofuran], for which the activity at 10 µM amounted to 79%.
The same measure, in the same setting: in the case of `COC(=O)C[C@H](NC(=O)OCc1ccccc1)C(=O)N[C@H]1CCOC1OC` (stereo partly drawn) [Example 74, (3S)-3-[[N-benzyloxycarbonyl-(L)-(3-methoxycarbonyl)alanyl]amino] -2-methoxytetrahydrofuran] it was 78%.

The data set is the same for the next values; noted with them: 48 h, concentration 30 μM, 2 days culture, mean of 5 bone pieces, lower = stronger inhibition, p<0.05, p<0.01 vs. control, read-out: Bone resorption Inhibitory Activity [45Ca release (Percent to control)].
With `CC(=O)O[C@@H]1OCC[C@@H]1NC(=O)[C@H](CC(C)C)NC(=O)Nc1cccc2ccccc12` [Example 29, (2S,3S)-2-acetoxy-3-[[N-(1-naphthylcarbamoyl)-(L)-leucyl]amino]-tetrahydrofuran], the activity at 30 µM is 67%.
Still for that read-out and setting: in the case of `CC(C)C[C@H](NC(=O)Nc1cccc2ccccc12)C(=O)NC1CCOC1O` (stereo partly drawn) [Example 32, 2-hydroxy-3-[[N-(1-naphthylcarbamoyl)-(L)-leucyl]amino]tetrahydrofuran] it was 77%.

In the next data set the test system is cathepsin L.
Test: not given
The following applies: reported as one of their inhibition activities; cited from earlier work.
With `CC(C)[C@H](NC(=O)[C@H](CCCNC(=N)N)NC(=O)N[C@@H](Cc1ccccc1)C(=O)O)C(=O)N[C@H](C=O)CCCNC(=N)N` [antipain] ({Phe-CO}-Arg-Val-Arg-aldehyde), the “cathepsin L inhibitory activity” value was “cathepsin L inhibitory activity”.
For the molecule `CC(=O)N[C@@H](CC(C)C)C(=O)N[C@@H](CC(C)C)C(=O)N[C@H](C=O)CCCNC(=N)N` [leupeptin], the “cathepsin L inhibitory activity” value was “cathepsin L inhibitory activity”.

One may read the IC50 as the midpoint of a concentration-inhibition curve.
